# Data as given in patent US9540381B2, “Anti-angiogenesis compound, intermediate and use thereof” (Guangzhou KangRui Biological Pharmaceutical Technology Co., …, priority 2013, dated 2017).
# What was measured:
# [1] = system: vessel development of the FLK1-GFP transgenic danio rerio; assay: Inhibition test on vascular development of Danio rerio; format: in vivo; conditions: for inhibition at 0.1 µM / inhibition at 1 µM / inhibition at 5 µM / inhibition at 10 µM / inhibition at 20 µM / inhibition at 40 µM / inhibition at 100 µM: Danio rerio, after 24 hours, n = 5, read-out: inhibition rate on the development of vertebral vessel; for inhibition at 0.1 µM: 100 nM; for inhibition effect on the vessel development of the danio rerio (in words): Table 1 and FIG. 7
# Experimental: Female fish can spawn 200-300 […], and the fertilization and embryonic development processes are conducted in vitro. They can grow up within 24 hours, and the embryo is transparent, which is suitable for observing the change of intracorporal organs and tissues. These characteristics make the danio rerio become to be one of the five fish laboratory animals accepted by the international organization for standardization. Currently, the danio rerio is widely used in human disease studies, especially used in cardiovascular system studies. The danio rerio can be used for screening the influence of small molecular compounds on angiogenesis. Experimental Method: This experiment uses FLK1-GFP transgenic danio rerio as an animal model which is generally used for screening the influence of compounds on angiogenesis. Vessel can be in vivo observed under fluorescence microscope (Suk-Won Jin, 2005, Development). The selected embryo of the postnatal FLK1-GFP transgenic danio rerio was placed into a culture dish and incubated for 3-5 days in an incubator at 28° C. […] Examine the developmental condition of the vertebral vessel after 24 hours and take photo by use of the fluorescence microscope.
# VEGFR2 = biological target: T1, VEGFR2 (Homo sapiens, UniProt P35968); assay: In vitro inhibition test on VEGFR2 in HUVECs (anti-phosphorylated VEGFR2 blot); format: cell-based; conditions: 10 nM, 100 nM and 1 μM, 50 ng/ml VEGF
# T1 construct: endogenous in cells; host or cells: primary HUVECs P3-P5
# Experimental: The experimental method of detecting the inhibition of the compounds of the present invention on VEGFR2 kinase is as follows:
# 1) The primary cultured human umbilical vein endothelial cells (HUVECs) P3-P5 were transferred to 6 well plate, 2×10^5 cells per well;
# 2) compounds 2-1, 2-2 and 2-4 of the present invention (the concentrations are 10 nM, 100 nM and 1 μM for each compound) were added when the cells grow to 70-80%, VEGF was a control, incubation for 30 min;
# 3) 50 ng/ml VEGF (cell Signaling company, US) was added, stimulating for 10 min;
# 4) nondenature lysis buffer was added to terminate the reaction, and cell lysis buffer was collected to carry out protein quantification;
# 5) SDS-PAGE electrophoresis, transfer to nitrocellulose membrane, the membrane was cut off and sealed in phosphate tween buffer, TTBS buffer (Tris-buffered saline 0.01% Tween 20, cell Signaling company, US, PH8.0) formulated from 5% skimmed milk for 2 hours; 6) wash the membrane, seal at 4° C. overnight by use of an anti-phosphorylated VEGFR2 antibody (1:1000 dilution, cell Signaling company, US); 7) on the second day after washing membrane, horse radish peroxidase marked goat anti-rabbit second antibody (cell Signaling company, US) was incubated with the membrane at room temperature for 1 hour; 8) develop with chemiluminescence kit (Millipore company) after washing membrane, and take photos.
# T1 sequence (P35968 20-1356): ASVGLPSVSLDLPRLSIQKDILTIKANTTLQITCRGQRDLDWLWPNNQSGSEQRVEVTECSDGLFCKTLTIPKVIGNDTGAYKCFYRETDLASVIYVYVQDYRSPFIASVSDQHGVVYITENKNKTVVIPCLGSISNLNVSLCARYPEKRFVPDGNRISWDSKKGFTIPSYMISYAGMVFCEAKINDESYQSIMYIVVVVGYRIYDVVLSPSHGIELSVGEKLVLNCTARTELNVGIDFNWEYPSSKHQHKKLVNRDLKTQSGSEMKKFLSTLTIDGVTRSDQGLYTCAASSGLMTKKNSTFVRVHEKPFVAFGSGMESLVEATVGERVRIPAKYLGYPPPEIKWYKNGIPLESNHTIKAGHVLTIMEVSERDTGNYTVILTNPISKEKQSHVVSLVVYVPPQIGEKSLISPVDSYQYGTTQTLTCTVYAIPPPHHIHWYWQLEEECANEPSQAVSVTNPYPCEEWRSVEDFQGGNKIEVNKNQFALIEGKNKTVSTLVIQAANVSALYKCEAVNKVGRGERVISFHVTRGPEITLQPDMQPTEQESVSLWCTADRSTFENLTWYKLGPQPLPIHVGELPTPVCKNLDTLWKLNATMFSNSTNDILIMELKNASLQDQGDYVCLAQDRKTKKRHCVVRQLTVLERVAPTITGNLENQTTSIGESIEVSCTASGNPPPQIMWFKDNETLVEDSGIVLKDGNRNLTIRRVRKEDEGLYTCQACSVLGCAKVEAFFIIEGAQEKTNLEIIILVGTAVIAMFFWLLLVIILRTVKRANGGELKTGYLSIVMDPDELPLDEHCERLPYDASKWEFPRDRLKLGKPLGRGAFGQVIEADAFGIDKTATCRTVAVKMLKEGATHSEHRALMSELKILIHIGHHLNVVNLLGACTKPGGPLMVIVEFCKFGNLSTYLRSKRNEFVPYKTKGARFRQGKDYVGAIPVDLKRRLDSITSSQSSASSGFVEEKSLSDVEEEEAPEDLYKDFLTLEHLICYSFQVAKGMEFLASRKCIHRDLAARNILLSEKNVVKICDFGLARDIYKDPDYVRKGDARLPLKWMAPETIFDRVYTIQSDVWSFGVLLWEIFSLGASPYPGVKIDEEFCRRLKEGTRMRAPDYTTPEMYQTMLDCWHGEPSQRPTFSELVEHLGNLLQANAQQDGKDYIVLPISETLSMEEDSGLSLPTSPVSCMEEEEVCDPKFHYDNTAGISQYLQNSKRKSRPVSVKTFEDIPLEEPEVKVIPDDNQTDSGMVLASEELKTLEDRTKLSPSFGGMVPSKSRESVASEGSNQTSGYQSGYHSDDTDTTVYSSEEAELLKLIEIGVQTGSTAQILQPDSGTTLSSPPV
Structure (SMILES),inhibition at 0.1 µM [1],inhibition at 1 µM [1],inhibition at 5 µM [1],inhibition at 10 µM [1],inhibition at 20 µM [1],inhibition at 40 µM [1],inhibition at 100 µM [1],inhibition effect on the vessel development of the danio rerio (in words) [1],"inhibition of VEGFR2 (in words, FIG. 8) (VEGFR2)"
O=C(Nc1cccc(C(F)(F)F)c1)c1cccc2nc(Oc3ncnc4c3CCNC4)ccc12 [Compound 2-3],0%,0%,0%,0%,0%,5%,20%,have inhibition effect on the vessel development of the danio rerio,–
CNCc1cc(Oc2ccc3c(C(=O)Nc4cccc(C(F)(F)F)c4)cccc3n2)ncn1 [Compound 2-4],0%,0%,0%,0%,5%,25%,70%,have inhibition effect on the vessel development of the danio rerio,can inhibit VEGFR2
O=C(Nc1cccc(C(F)(F)F)c1)c1cccc2nc(Oc3ncnc4c3CNC4)ccc12 [Compound 2-5],0%,0%,10%,40%,80%,100%,100%,have inhibition effect on the vessel development of the danio rerio,–
"Cc1ccc(Nc2nccc(N(C)c3ccc4c(C)n(C)nc4c3)n2)cc1S(N)(=O)=O [Compound 130B, Pazopanib, reference compound]",0%,0%,85%,90%,95%,95%,100%,–,–
